Assay results published in patent publication US20070166710A1, “Methods for inhibiting adipogenesis and for treating type 2 diabetes” (priority 2003, published 2007).

Experiments:
Pepck, G6pc and Igfbp-1 = assay: mRNA levels of Foxa-2 target genes in primary hepatocytes (RT-PCR); format: cell-based; details: insulin alone (50 nM, 6 hours)
Method: FIGS. 10a-d depict the effect of insulin on Foxa-2 activity. FIG. 10a is a bar graph depicting relative Foxa-2 activity in HepG2 cells transfected with an expression vector for Foxa-2 and […]-Luc (gray bars) or p6xCdx-TkLuc (black bars). Cells were treated with insulin alone or in the presence of Ly294002 or PD98059. FIG. 10b is a bar graph depicting relative Foxa-2 activity in HepG2 cells transfected with p6xCdx-TkLuc and treated with insulin alone or in the presence of Ly294002 or PD98059. […] FIG. 10d is a bar graph depicting relative Foxa-2 activity in HepG2 cells transfected with an expression vector for Foxa-1, Foxa-2, Akt or Akt[…] alone or in combination, using p6xCdx-TkLuc as reporter gene. In all experiments luciferase activity was normalized to β-Gal activity. […] Levels of mRNA were analyzed to determine whether inhibition of Foxa-2 target gene expression by insulin is controlled at a transcriptional or posttranscriptional level. The mRNA levels of Pepck, G6pc and Igfbp-1 in primary hepatocytes that were cultured either in the presence or absence of insulin, PI3-kinase or MAPKK1 inhibitors were measured.

Foxa-2 expression = Foxa-2 expression in primary adipocytes from ob/ob mice, semiquantitative RT-PCR; format: cell-based; details: insulin 100 μM as printed, prolonged culturing (24 and 60 hours)
Method: Total RNA was extracted from cells and EBs using Trizol following manufacturer's instructions (Life Technologies, Inc.). […] The cDNAs provided templates for polymerase chain reactions (PCRs) using specific primers at annealing temperatures ranging between 60 and 65° C. in the presence of dNTPs, [α^-32P]dCTP, and Taq DNA polymerase. […] Primary adipocytes were isolated as described by Rodbell (1964) J. Biol. Chem. 239:375-380. […] (1995) J. Cell. Biochem. 58:435-463. The reaction was stopped by spinning through dinonyl […] oil and the radioactivity quantified by scintillation counting. […] (1995) Am. J. Physiol. 268:[…]-[…]. Fatty acid de novo synthesis was analyzed by saponification of total lipids as described by […] et al. (1978) J. […] Incorporation into lipid glycerol was calculated by subtracting fatty acid radioactive label from total lipid radioactive label. Primary adipocytes were isolated from ob/ob mice and cultured in MEM medium (control) or in the presence of insulin (100 μM; 24 hours and 60 hours, respectively) or rosiglitazone (50 μM), WY14,643 (100 μM), dexamethason (1 μM), leptin (100 ng/ml), TNF-α, (5 ng/ml), adiponectin (500 ng/ml) and glucagons (100 nM) for 60 hours. Gene expression was measured by semiquantitative RT-PCR. Steady state mRNA levels of Hprt were used as a control and indicate that each lane contains similar amounts of rnRNA. Reactions were also assayed in the absence of reverse transcriptase, showing that mRNA was not contaminated with genomic DNA.

Foxa-2 activity = assay: Transactivation assay, HepG2 cells transfected with Foxa-2 and pPepck-Luc or p6xCdx-TkLuc; format: cell-based, rat; details: insulin 100 nM for the duration of transfection
Method: Transfections and Transactivation assay. HepG2 cells were grown to 60-70% confluence in a 24-well dish and transfected with 50 ng of each reporter gene (p6xCdx-TkLuc or pPEPCK-Luc), pCMV-β-Gal as internal reference and the expression vectors for wildtype or mutant Foxa-1 and Foxa-2 and human Akt1/Akt2 using the transfection reagent Fugene6 (Roche). Cells were grown for 48 hours and luciferase activity was measured using the Luciferase Detection System (Promega). Luciferase was normalized for transfection efficiency by β-galactosidase activity.
To analyze whether Foxa-2 activity is regulated by insulin, HepG2 cells were transfected with a Foxa-2 expression vector and either plasmid pPepck-Luc or p6xCdx-TkLuc that contain a 621 bp promoter framnent of the human PEPCK gene or six Foxa-2 binding sites of the Cdx-2 gene upstream of a minimal promoter and the luciferase gene, respectively.

Foxa-2 = assay: Immunoblot of phospho-TI56 Foxa-2 in livers after intraportal insulin; format: in vivo, mice
Method: FIG. 15a is an immunoblot of Foxa-2 and Foxo-1 in liver nuclear extracts of fed (n=3) and starved (n=3) mice. Anti-TATA binding protein (Tbp) antibodies were used as a loading control. FIGS. 15b and 15c are immunoblots of Foxa-2 and Foxo-1 in nuclear extracts of livers from mice perfused with different concentrations of insulin. FIG. 15d is a Western blot of Foxa-2 immunoprecipitated with anti-Foxa-2 antibodies from whole cell extracts of livers obtained from fasted mice 30 minutes after injection of 10 ng insulin or PBS in the portal vein. Samples (n=3 for each group) were analyzed by immunoblot analysis with an antibody directed against phospho-TI56 Foxa-2 (top panel) or with an antibody directed against total Foxa-2 protein (bottom panel). […]
The role of Foxa-2 in the regulation of liver gene expression by nutritional status was examined by determining the intracellular localization of Foxa-2 in fasted and fed mice by Western blotting of Foxa-2 in liver nuclear extracts and by immunohistochemistry. […] Strong Foxa-2 immunostaining was detected in hepatocyte nuclei of control (PBS) mice. […] Foxa-2 protein levels were measured in liver nuclei of C57/B6 mice that were perfused with a buffer containing a range of insulin concentrations that included fasting and postprandial insulin levels (0.2 and 4.0 ng/ml, respectively). […] Foxa-2 levels were determined by immunoblotting. […]

With “insulin: Insulin was from Sigma; hormone used as stimulus” the “mRNA levels of Pepck, G6pc and Igfbp-1” value (Pepck, G6pc and Igfbp-1) was “significantly reduced”, the Foxa-2 expression (Foxa-2 expression) was “strong increase” and the “Foxa-2 activity (luciferase reporter)” value (Foxa-2 activity) was “significantly decreased”. For the same substance, the “phosphorylated Foxa-2 detected by anti-phospho TI56 peptide antibody” value (Foxa-2; intraportal injection of insulin vs PBS) was “recognized phosphorylated Foxa-2” and the “Foxa-2 protein levels (anti-Foxa-2 antibodies)” value (Foxa-2; treated vs untreated livers) was “the same”.
